Results on seven compounds are retold here after PubChem BioAssay (NCI).

Where “and” joins values, the source holds several entries; their conditions need not be identical. Equal entries are not always repeated.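 Compound exposure: 48 hours, 5 concentrations, 96-well plates. The concentration for 50% growth inhibition is given as GI50. TGI is the concentration that stops growth completely.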 Where a SMILES comes first, the peptide text is derived from it. [ ]: non-standard residue; d: D form. Phe(F5) = N[CH](Cc1c(F)c(F)c(F)c(F)c1F)C(=O)O Where only a bound is given, the exact number is not on record here.

Some test systems named below: SF-539 CNS; RPMI-8226 leukemia; HS 578T breast; NCI/ADR-RES ovarian; HCC-2998 colon; SK-OV-3 ovarian; RXF 393 renal; HL-60(TB) leukemia; IGROV1 ovarian; CCRF-CEM leukemia.
What all share (test): NCI anticancer screen, dose series, 48 h

For the compound `CCn1c(-c2nonc2N)nc2cncc(C(=O)N3CCNCC3)c21`, the GI50 with SF-539 CNS, in the experiment on RPMI-8226 leukemia, in the experiment on HS 578T breast, in the experiment on NCI/ADR-RES ovarian, in the experiment with HCC-2998 colon and with SK-OV-3 ovarian was greater than 25 µM throughout. Further, the GI50 in the experiment on RXF 393 renal, in the experiment on HL-60(TB) leukemia, in the experiment with IGROV1 ovarian and with CCRF-CEM leukemia was greater than 25 µM each time. In addition, the TGI in the experiment on SF-539 CNS, in the experiment on RPMI-8226 leukemia, in the experiment on HS 578T breast, in the experiment on NCI/ADR-RES ovarian, in the experiment on HCC-2998 colon and with SK-OV-3 ovarian was greater than 25 µM throughout. In addition, the TGI in the experiment with RXF 393 renal, in the experiment on HL-60(TB) leukemia, with IGROV1 ovarian and in the experiment with CCRF-CEM leukemia was greater than 25 µM in each case.

For the compound `CCN(CC)CCOc1ccc(C(=C(C)c2ccc(Cl)cc2)c2ccc(OCCN(CC)CC)cc2)cc1`, the GI50 was 0.59 µM in the experiment on SF-539 CNS; 0.668 µM with RPMI-8226 leukemia; 0.71 µM in the experiment on HS 578T breast; 0.657 µM with NCI/ADR-RES ovarian; 0.574 µM in the experiment on HCC-2998 colon; 1.22 µM in the experiment with SK-OV-3 ovarian. For the same compound, the GI50 is 0.519 µM with RXF 393 renal, 0.639 µM in the experiment with HL-60(TB) leukemia, 0.609 µM in the experiment on IGROV1 ovarian and 0.625 µM in the experiment on CCRF-CEM leukemia. Further, the TGI is 1.1 µM in the experiment with SF-539 CNS; 1.49 µM with RPMI-8226 leukemia; 1.85 µM in the experiment with HS 578T breast; 1.4 µM in the experiment on NCI/ADR-RES ovarian; 1.06 µM with HCC-2998 colon; 4.11 µM in the experiment with SK-OV-3 ovarian. Further, the TGI in the experiment with RXF 393 renal amounted to 1.01 µM; in the experiment with HL-60(TB) leukemia, 1.34 µM; with IGROV1 ovarian, 1.19 µM; with CCRF-CEM leukemia, 1.71 µM.

For `CN(C)CCNC(=O)c1cccn2c(=O)c3cc4ccccc4cc3nc12`, the GI50 was 0.161 µM in the experiment on SF-539 CNS; 0.24 µM in the experiment on RPMI-8226 leukemia; 0.153 µM in the experiment on HS 578T breast; 0.101 µM with NCI/ADR-RES ovarian; 0.241 µM in the experiment on HCC-2998 colon; 0.235 µM with SK-OV-3 ovarian. Further, the GI50 was 0.0981 µM in the experiment on RXF 393 renal, 0.36 µM with HL-60(TB) leukemia, 0.0396 µM in the experiment on IGROV1 ovarian and 0.1 µM in the experiment on CCRF-CEM leukemia. Moreover, the TGI with SF-539 CNS worked out at 1.6 µM; in the experiment with HS 578T breast it was 1.76 µM; in the experiment on NCI/ADR-RES ovarian it was 0.468 µM; in the experiment on HCC-2998 colon, 1.06 µM; with SK-OV-3 ovarian, 22.8 µM; in the experiment on RXF 393 renal, 0.286 µM. The TGI was found to be 9.73 µM in the experiment with HL-60(TB) leukemia, 2.17 µM in the experiment on IGROV1 ovarian and 32.6 µM in the experiment on CCRF-CEM leukemia.

As to `COC(=O)C(CC(C)C)NC(=O)C(Cc1cnc[nH]1)NC(=O)CNC(=O)C(NC(=O)C(C)NC(=O)C(Cc1c[nH]c2ccccc12)NC(=O)C(CCC(=O)O)NC(=O)C(N)Cc1c(F)c(F)c(F)c(F)c1F)C(C)C` (stereo unspecified) (H-[Phe(F5)]EWAVGHL-OMe; configuration not given here), the GI50 in the experiment on SF-539 CNS, in the experiment with RPMI-8226 leukemia, in the experiment on HCC-2998 colon, with RXF 393 renal, with HL-60(TB) leukemia and in the experiment on IGROV1 ovarian was greater than 100 µM in each case. In addition, in the experiment on CCRF-CEM leukemia, the GI50 was greater than 100 µM. Besides, the TGI in the experiment on SF-539 CNS is greater than 100 µM; with RPMI-8226 leukemia, greater than 100 µM; in the experiment on HS 578T breast, greater than 12.5 µM; in the experiment with NCI/ADR-RES ovarian, greater than 12.5 µM; in the experiment with HCC-2998 colon, greater than 100 µM; in the experiment on SK-OV-3 ovarian, greater than 12.5 µM. Also, the TGI with RXF 393 renal, in the experiment on HL-60(TB) leukemia, with IGROV1 ovarian and in the experiment on CCRF-CEM leukemia was greater than 100 µM throughout.

On to `COc1cc2c(cc1OC)-c1ccc3cc4c(cc3c1N(CCN1CCCC1)C2)OCO4`, for which the GI50 is 0.643 µM with SF-539 CNS; 0.224 µM with RPMI-8226 leukemia; 1.53 µM in the experiment with HS 578T breast; 7 µM in the experiment on NCI/ADR-RES ovarian; 1.09 µM with HCC-2998 colon; 0.526 µM in the experiment with SK-OV-3 ovarian. The GI50 in the experiment on RXF 393 renal was 0.794 µM; in the experiment on HL-60(TB) leukemia it was 0.882 µM; in the experiment with IGROV1 ovarian, 0.517 µM; in the experiment on CCRF-CEM leukemia, 0.186 µM. Further, the TGI is 2.75 µM in the experiment on SF-539 CNS; 0.723 µM with RPMI-8226 leukemia; 14.7 µM with HS 578T breast; 53.8 µM with NCI/ADR-RES ovarian; 2.43 µM in the experiment on HCC-2998 colon; 5.51 µM with SK-OV-3 ovarian. In addition, the TGI with RXF 393 renal was determined as 2.72 µM; in the experiment with HL-60(TB) leukemia, 2.7 µM; with IGROV1 ovarian, 2.37 µM; in the experiment with CCRF-CEM leukemia, 4.36 µM.

In the case of `C=C(C)[C@@H]1CC[C@]2(C(=O)NCCCN)CC[C@]3(C)[C@H](CC[C@@H]4[C@@]5(C)CC[C@H](O)C(C)(C)[C@@H]5CC[C@]43C)[C@@H]12`, the GI50 in the experiment on SF-539 CNS was 17.9 µM; in the experiment with RPMI-8226 leukemia it was 17.2 µM; in the experiment on HS 578T breast, 40.5 µM; in the experiment with NCI/ADR-RES ovarian, 24.8 µM; in the experiment with HCC-2998 colon, 21.4 µM; in the experiment with SK-OV-3 ovarian, 17.7 µM. Also, the GI50 was 17 µM with RXF 393 renal, 16.5 µM in the experiment on HL-60(TB) leukemia, 21.5 µM with IGROV1 ovarian and 22.1 µM with CCRF-CEM leukemia. Also, the TGI in the experiment on SF-539 CNS was 52 µM; in the experiment with RPMI-8226 leukemia it was 92.6 µM; with HS 578T breast, greater than 100 µM; with NCI/ADR-RES ovarian, 81.2 µM; in the experiment with HCC-2998 colon, 77.1 µM; with SK-OV-3 ovarian, 49.4 µM. Besides, the TGI in the experiment with RXF 393 renal was 44.1 µM; in the experiment on HL-60(TB) leukemia it was 50.7 µM; in the experiment on IGROV1 ovarian, greater than 100 µM; with CCRF-CEM leukemia, greater than 100 µM.

In the case of `O=C(Nc1cccc(Cl)c1)Nc1ncc(CCNc2ncnc3ccsc23)s1`, the GI50 in the experiment on SF-539 CNS was 0.635 µM and 0.53 µM; with RPMI-8226 leukemia, 2.98 µM and 1.32 µM; with HS 578T breast it was 2.92 µM and 0.64 µM; with NCI/ADR-RES ovarian, 1.34 µM and 1.6 µM; in the experiment with HCC-2998 colon, 9.38 µM and > 10 µM; with SK-OV-3 ovarian, 9.12 µM and 4.86 µM. The GI50 in the experiment on RXF 393 renal was 1.93 µM and 2.16 µM; with HL-60(TB) leukemia, 4.93 µM and 3.37 µM; in the experiment with IGROV1 ovarian, 7.43 µM and 3.6 µM; in the experiment on CCRF-CEM leukemia, < 0.01 µM and 0.00391 µM. Further, the TGI in the experiment with SF-539 CNS is 16.9 µM and > 10 µM; with RPMI-8226 leukemia, 33.5 µM and 5.81 µM; with HS 578T breast, 39.7 µM and > 10 µM; in the experiment on NCI/ADR-RES ovarian, 11.8 µM and > 10 µM; with HCC-2998 colon, 25.6 µM and > 10 µM; with SK-OV-3 ovarian, 24.1 µM and > 10 µM. In addition, the TGI in the experiment on RXF 393 renal is 10.1 µM and > 10 µM; with HL-60(TB) leukemia, 28.9 µM and > 10 µM; in the experiment with IGROV1 ovarian, 44.1 µM and > 10 µM; in the experiment with CCRF-CEM leukemia, greater than 100 µM.
